Test results from publication PMC8623418, “Novel Multitarget Hydroxamic Acids with a Natural Origin CAP Group against Alzheimer’s Disease: Synthesis, Docking and Biological Evaluation” (Pharmaceutics, 2021).

Legend:
5xFAD transgenic mice [1] = test: Ex vivo total glutathione in mouse brain homogenate; conditions: post-mortem, versus 5xFAD mice
Description: (§1) At the end of the in vivo series of experiments, the animals’ brains were sampled for further measurement of the lipid peroxidation level, as well as glutathione content in mouse brain homogenates. A synaptosomal p2 fraction containing mitochondria was also isolated to investigate the bioenergetic characteristics of organelles.
The performance of the glutathione system of the cell’s own antioxidant defense was evaluated using a commercially available kit (Glutathione Assay Kit, Sigma Aldrich, Saint Louis, MO, USA) in accordance with the protocol provided by the manufacturer. The total glutathione level was determined by spectrophotometric measurement at a wavelength of 412 nm by the amount of 2-nitro-5-thiobenzoic acid, a product formed during the reduction of GSH 5,5′-dithiobis-(2-nitrobenzoic acid).
The glutathione content was estimated using the method based on measurement of the absorption of a colored compound formed during the colorimetric reaction of DTNB with SH groups of glutathione. […] Therefore, the level of lipid peroxidation of mouse brain homogenates was also measured by its final product, malondialdehyde. […]

5xFAD transgenic mice [2] = test: Ex vivo electron transport chain activity of brain mitochondria (Seahorse OCR); type: in vivo; conditions: brain mitochondrial p2 fraction of treated 5xFAD mice
Description: as §1
The study on the effect of the electron transport chain complexes was carried out on a preparation of the mitochondrial p2 fraction of the brain (10 µg/well) using the Agilent Seahorse XF96e Analyzer (Seahorse Bioscience, Santa Clara, CA, USA) to measure the rate of oxygen uptake under the action of modulators. For this purpose, the activators of the electron transport chain complex I-glutamate/malate, the inhibitor of complex I, rotenone (2 µM), the substrate of complex II, potassium succinate ([…]), the inhibitor of complex III, antimycin A, and the substrates of complex IV, ascorbate, were used/TMPD (0.5 µM).
To evaluate mitochondrial functioning, we determined the functioning of the respiratory chain complexes using Seahorse Bioanalyzer. […] However, the oxygen consumption rate (OCR) was increased in transgenic animals treated with the test compounds.

O=C(CCCCCCC(=O)NC1C2CC3CC(C2)CC1C3)NO (stereo not shown) [compound 15, N^1-(Adamant-2-yl)-N^8-Hydroxyoctanediamide]
Total glutathione content in brain (5xFAD transgenic mice [1]): tended to recover this parameter | melting point: 133.6 °C | Oxygen consumption rate (OCR) after injection of succinate (5xFAD transgenic mice [2]; complex II): 251.00 ± 10.45 pmol/min | Oxygen consumption rate (OCR) after injection of ascorbate (5xFAD transgenic mice [2]; complex IV): 422.67 ± 14.61 pmol/min
